Measurements as given in ChEMBL document CHEMBL5291721, “A preclinical secondary pharmacology resource illuminates target-adverse drug reaction associations of marketed drugs” (Nat Commun, 2023).

Key:
[1] = target: Gamma-aminobutyric acid receptor subunit alpha-1/alpha-2/beta-2/gamma-2 (Homo sapiens, UniProt P14867+P18507+P47869+P47870); type: functional, cell-based
Estrogen receptor = target: T1, Estrogen receptor (Homo sapiens, UniProt P03372)
T1 sequence (P03372 whole entry): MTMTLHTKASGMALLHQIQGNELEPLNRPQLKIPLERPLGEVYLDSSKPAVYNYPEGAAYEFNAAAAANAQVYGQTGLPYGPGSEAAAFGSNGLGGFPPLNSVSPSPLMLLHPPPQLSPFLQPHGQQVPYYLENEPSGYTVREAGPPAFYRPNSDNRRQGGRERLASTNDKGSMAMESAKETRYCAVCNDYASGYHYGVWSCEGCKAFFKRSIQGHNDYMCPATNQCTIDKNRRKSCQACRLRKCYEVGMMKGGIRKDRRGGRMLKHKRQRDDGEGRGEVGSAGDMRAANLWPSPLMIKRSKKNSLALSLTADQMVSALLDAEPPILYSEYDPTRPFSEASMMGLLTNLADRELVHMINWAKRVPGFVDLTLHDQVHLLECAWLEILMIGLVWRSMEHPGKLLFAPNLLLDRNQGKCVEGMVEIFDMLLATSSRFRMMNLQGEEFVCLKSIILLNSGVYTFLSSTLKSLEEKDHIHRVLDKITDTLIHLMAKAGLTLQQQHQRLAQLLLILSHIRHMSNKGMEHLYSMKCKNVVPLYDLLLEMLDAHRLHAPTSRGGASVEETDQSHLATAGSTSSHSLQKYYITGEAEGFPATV

[2] = target: Voltage-dependent N-type calcium channel subunit alpha-1B (Rattus norvegicus, UniProt Q02294); type: functional
[3] = target: T2, Corticotropin-releasing factor receptor 2 (Homo sapiens, UniProt Q13324)
T2 sequence (Q13324 whole entry): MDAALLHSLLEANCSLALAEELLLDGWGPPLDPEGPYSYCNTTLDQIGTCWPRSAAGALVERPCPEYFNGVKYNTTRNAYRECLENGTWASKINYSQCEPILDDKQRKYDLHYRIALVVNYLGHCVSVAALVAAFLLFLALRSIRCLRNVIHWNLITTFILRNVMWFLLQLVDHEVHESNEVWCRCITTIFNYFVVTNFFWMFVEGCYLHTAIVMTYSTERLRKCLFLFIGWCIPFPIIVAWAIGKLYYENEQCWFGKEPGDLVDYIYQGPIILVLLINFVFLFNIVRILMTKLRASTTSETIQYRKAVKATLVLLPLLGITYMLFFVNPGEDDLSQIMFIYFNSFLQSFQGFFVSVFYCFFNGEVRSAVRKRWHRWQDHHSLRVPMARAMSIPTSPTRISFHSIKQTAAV

[4] = target: T3, Neuropeptide Y receptor type 2 (Homo sapiens, UniProt P49146)
T3 sequence (P49146 whole entry): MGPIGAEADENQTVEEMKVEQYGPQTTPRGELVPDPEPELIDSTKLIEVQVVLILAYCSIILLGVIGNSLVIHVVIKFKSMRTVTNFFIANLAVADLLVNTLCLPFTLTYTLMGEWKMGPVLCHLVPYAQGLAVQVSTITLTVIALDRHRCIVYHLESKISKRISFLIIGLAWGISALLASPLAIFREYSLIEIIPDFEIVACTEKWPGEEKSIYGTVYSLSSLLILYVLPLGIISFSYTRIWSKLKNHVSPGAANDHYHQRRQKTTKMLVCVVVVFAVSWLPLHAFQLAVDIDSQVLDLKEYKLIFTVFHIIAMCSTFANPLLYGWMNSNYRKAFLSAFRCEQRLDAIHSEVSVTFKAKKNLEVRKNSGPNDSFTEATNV

Progesterone receptor = target: T4, Progesterone receptor (Homo sapiens, UniProt P06401)
T4 sequence (P06401 whole entry): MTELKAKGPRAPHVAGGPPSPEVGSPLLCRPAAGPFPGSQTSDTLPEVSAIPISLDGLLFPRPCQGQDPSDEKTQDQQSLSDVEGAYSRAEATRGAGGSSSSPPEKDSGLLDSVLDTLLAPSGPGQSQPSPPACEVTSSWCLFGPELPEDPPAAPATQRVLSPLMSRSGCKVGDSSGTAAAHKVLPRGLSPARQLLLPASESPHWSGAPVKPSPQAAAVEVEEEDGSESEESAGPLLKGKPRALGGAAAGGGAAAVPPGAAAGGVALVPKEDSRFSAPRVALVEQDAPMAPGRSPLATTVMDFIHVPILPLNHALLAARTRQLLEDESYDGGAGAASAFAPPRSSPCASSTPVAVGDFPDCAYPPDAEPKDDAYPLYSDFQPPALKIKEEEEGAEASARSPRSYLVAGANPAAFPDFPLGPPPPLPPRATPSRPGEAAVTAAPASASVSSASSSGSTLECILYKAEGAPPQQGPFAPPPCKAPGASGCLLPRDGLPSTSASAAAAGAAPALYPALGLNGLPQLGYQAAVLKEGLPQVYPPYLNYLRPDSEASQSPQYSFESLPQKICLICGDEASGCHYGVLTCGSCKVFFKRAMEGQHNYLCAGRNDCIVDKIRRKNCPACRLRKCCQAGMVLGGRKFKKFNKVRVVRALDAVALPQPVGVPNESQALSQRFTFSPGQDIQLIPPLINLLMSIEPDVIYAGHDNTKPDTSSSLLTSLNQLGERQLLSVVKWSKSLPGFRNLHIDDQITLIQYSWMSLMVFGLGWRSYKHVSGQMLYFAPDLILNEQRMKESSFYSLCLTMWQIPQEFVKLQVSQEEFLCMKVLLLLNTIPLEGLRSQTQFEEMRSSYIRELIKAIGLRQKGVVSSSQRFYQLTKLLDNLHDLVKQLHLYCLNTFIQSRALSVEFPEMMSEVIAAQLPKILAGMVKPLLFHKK
Also: assay procedure not described here.

Sequence of Gamma-aminobutyric acid receptor subunit alpha-1/alpha-2/beta-2/gamma-2 (P14867 whole entry): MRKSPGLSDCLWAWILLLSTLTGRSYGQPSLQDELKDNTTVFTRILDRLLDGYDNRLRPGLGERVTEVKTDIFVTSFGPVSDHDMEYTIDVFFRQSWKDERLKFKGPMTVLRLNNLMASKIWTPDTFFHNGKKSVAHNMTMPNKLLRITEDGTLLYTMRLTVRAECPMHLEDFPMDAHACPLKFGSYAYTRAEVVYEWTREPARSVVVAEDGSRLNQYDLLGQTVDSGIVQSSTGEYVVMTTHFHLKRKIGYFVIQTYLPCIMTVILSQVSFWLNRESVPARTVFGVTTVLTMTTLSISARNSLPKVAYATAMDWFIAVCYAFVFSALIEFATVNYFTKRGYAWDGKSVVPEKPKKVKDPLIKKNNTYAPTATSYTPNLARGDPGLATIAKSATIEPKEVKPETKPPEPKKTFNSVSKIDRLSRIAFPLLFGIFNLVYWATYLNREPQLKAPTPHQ
Sequence of Gamma-aminobutyric acid receptor subunit alpha-1/alpha-2/beta-2/gamma-2 (P47870 whole entry): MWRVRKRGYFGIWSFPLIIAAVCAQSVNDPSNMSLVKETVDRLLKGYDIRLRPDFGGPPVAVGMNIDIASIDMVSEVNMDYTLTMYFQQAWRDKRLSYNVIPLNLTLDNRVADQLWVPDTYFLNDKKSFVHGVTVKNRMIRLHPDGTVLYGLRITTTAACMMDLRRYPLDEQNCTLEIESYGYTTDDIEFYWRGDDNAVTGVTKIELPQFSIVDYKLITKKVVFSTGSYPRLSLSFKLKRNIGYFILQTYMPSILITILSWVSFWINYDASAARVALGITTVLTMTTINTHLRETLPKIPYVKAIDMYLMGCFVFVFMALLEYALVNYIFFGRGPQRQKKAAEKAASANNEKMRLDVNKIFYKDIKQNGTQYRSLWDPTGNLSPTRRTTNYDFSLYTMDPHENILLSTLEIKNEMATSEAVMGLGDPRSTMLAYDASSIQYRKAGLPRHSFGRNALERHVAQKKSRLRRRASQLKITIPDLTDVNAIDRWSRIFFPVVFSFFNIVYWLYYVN
Sequence of Gamma-aminobutyric acid receptor subunit alpha-1/alpha-2/beta-2/gamma-2 (P18507 whole entry): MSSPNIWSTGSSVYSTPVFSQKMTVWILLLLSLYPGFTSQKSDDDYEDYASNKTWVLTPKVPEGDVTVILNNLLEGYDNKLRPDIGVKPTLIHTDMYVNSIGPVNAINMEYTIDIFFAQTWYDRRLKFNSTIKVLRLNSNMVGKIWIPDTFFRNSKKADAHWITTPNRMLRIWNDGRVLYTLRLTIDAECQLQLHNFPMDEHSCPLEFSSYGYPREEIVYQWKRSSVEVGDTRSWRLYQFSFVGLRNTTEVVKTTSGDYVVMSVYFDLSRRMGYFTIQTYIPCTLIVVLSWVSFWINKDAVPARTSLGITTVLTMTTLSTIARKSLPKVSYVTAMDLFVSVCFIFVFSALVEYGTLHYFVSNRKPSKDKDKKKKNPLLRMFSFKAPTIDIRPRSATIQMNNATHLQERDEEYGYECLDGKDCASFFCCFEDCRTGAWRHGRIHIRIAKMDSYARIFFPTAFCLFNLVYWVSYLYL
Sequence of Gamma-aminobutyric acid receptor subunit alpha-1/alpha-2/beta-2/gamma-2 (P47869 whole entry): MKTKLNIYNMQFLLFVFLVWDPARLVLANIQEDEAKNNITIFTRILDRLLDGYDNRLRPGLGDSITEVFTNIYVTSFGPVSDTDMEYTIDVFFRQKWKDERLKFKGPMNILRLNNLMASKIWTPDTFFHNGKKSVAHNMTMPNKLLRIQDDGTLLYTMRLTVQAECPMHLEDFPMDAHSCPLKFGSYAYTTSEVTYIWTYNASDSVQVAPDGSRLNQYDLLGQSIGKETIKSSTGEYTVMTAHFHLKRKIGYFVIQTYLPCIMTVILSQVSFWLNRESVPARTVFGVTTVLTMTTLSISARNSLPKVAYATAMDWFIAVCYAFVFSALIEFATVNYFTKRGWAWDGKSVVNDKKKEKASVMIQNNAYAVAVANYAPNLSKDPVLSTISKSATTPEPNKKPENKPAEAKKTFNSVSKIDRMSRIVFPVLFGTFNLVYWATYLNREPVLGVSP
Sequence of Voltage-dependent N-type calcium channel subunit alpha-1B (Q02294 whole entry): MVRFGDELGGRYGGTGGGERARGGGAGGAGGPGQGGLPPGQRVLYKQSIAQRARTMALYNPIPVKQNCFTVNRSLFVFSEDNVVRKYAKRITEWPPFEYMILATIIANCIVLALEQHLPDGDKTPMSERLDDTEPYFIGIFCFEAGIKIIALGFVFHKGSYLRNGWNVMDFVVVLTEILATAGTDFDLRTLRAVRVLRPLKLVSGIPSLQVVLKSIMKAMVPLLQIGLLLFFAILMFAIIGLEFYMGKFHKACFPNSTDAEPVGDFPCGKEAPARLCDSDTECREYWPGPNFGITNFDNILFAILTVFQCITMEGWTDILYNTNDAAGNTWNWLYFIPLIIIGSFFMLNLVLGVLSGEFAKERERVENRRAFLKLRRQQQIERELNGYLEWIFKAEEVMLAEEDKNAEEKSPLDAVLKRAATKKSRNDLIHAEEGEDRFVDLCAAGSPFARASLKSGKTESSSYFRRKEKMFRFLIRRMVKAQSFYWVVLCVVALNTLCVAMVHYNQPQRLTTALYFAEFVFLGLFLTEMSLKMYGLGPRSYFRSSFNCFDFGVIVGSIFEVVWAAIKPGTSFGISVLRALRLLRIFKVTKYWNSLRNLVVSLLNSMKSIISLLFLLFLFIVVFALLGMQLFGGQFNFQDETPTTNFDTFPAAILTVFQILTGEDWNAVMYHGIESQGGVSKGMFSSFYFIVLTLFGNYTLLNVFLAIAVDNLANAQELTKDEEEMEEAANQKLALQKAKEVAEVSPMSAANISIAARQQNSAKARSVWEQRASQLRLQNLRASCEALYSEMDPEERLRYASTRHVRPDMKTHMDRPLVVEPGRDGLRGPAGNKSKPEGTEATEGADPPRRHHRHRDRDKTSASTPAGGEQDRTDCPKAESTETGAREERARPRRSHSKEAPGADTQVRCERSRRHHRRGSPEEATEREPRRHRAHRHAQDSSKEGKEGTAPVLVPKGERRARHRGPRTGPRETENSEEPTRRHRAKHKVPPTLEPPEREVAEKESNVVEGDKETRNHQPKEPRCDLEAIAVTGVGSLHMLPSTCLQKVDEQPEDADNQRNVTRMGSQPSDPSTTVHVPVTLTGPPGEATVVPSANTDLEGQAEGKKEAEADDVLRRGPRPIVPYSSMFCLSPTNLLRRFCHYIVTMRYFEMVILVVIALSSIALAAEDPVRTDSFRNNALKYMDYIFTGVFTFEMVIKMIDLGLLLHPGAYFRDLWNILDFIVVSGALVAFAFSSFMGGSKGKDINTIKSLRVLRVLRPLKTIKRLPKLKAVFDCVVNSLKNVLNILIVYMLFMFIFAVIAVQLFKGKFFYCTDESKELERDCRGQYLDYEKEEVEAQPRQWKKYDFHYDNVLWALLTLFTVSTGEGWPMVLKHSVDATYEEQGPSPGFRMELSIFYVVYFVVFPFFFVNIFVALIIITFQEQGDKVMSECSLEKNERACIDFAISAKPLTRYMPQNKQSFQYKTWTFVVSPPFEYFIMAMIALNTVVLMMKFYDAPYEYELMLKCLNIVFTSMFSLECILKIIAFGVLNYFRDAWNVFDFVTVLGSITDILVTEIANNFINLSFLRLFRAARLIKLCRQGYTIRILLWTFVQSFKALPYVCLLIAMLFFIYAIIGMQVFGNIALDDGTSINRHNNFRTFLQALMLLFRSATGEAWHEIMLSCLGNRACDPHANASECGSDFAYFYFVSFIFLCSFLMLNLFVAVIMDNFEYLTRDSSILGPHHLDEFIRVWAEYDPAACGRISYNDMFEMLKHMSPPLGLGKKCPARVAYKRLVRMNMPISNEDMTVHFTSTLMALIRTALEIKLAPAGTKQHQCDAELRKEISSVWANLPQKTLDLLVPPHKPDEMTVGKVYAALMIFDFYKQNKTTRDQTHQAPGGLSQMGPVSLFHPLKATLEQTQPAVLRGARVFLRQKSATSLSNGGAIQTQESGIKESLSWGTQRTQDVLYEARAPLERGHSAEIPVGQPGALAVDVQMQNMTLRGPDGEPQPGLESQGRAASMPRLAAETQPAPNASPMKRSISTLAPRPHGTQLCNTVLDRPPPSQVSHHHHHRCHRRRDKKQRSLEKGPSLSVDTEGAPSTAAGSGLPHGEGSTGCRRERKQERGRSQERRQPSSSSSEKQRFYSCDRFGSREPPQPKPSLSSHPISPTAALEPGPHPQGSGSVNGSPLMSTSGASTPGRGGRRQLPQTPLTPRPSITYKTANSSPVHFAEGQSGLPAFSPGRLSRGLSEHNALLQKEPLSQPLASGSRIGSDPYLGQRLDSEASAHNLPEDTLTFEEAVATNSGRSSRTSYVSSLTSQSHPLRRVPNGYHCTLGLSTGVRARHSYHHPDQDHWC

| SMILES | AC50 (Estrogen receptor) [µM] | also measured |
| --- | --- | --- |
| CN(CC1(C)CCCO1)S(=O)(=O)c1ccc(Cl)c(S(N)(=O)=O)c1 (stereo unspecified) [MEFRUSIDE] |  | AC50 [1]: > 30 µM |
| CC[C@H](C)C[C@H](C)CCCCCCCCC(=O)N[C@H]1C[C@@H](O)[C@@H](NCCN)NC(=O)[C@@H]2[C@@H](O)CCN2C(=O)[C@H]([C@H](O)CCN)NC(=O)[C@H]([C@H](O)[C@@H](O)c2ccc(O)cc2)NC(=O)[C@@H]2C[C@@H](O)CN2C(=O)[C@H]([C@@H](C)O)NC1=O [CASPOFUNGIN] | 23.1 |  |
| Cc1ccccc1C(=O)Nc1ccc(C(=O)N2CCCC(N(C)C)c3ccccc32)cc1 (stereo unspecified) [MOZAVAPTAN] | > 30 |  |
| CC(=O)O[C@]1(C(C)=O)CC[C@H]2[C@@H]3C=C(C)C4=CC(=O)CC[C@@H]4[C@H]3CC[C@@]21C [NOMEGESTROL ACETATE] | > 30 |  |
| CN1CCC(=C2c3ccccc3Sc3ccccc32)CC1 [PIMETHIXENE] | > 30 |  |
| C/C=C/C/C=C/CCC(=O)[C@H]1O[C@H]1C(N)=O [CERULENIN] | > 30 |  |
| O=C(O)CO [GLYCOLIC ACID] | > 30 |  |
| CC[C@H](c1ccc(O)cc1)[C@@H](CC)c1ccc(O)cc1 [HEXESTROL] | 0.0252 |  |
| CC(C)N(CCC(C(N)=O)(c1ccccc1)c1ccccn1)C(C)C (stereo unspecified) [DISOPYRAMIDE] |  | AC50 [2]: > 10 µM; AC50 [3]: > 30 µM; AC50 [4]: > 30 µM; AC50 (Progesterone receptor): > 30 µM |
| CN(C)CCC[C@@]1(c2ccc(F)cc2)OCc2cc(C#N)ccc21 [ESCITALOPRAM] |  | AC50 [1]: > 30 µM |
| FC(F)(F)c1ccc(CNc2ccc(Cc3c[nH]c4ncc(Cl)cc34)cn2)cn1 [PEXIDARTINIB] | > 30 |  |
| CCc1nc(C(N)=O)c(Nc2ccc(N3CCC(N4CCN(C)CC4)CC3)c(OC)c2)nc1NC1CCOCC1 [GILTERITINIB] | > 30 |  |
| C[C@H](CCC(=O)O)[C@H]1CC[C@H]2[C@@H]3[C@@H](O)C[C@@H]4C[C@H](O)CC[C@]4(C)[C@H]3CC[C@]12C [URSODIOL] |  | AC50 [1]: > 30 µM |
| [H]/N=C(\N/C(=N/[H])Nc1ccc(Cl)cc1)NC(C)C [PROGUANIL] | > 30 |  |
| CC(C)C[C@H](NC(=O)CNC(=O)c1cc(Cl)ccc1Cl)B(O)O [IXAZOMIB] | > 30 |  |
| C#C[C@]1(O)CC[C@H]2[C@@H]3CCC4=CC(=O)CC[C@@H]4[C@H]3C(=C)C[C@@]21CC [ETONOGESTREL] | 5.62 | AC50 [1]: > 30 µM |
| N#Cc1ccc2c(c1)N(CCCN1CCC(O)CC1)c1ccccc1S2 [PERICIAZINE] | > 30 |  |
| O=C(O)c1cc(/N=N/c2ccc(O)c(C(=O)O)c2)ccc1O [OLSALAZINE] | > 30 |  |
| COc1ccccc1Oc1c(NS(=O)(=O)c2ccc(C(C)(C)C)cc2)nc(-c2ncccn2)nc1OCCO [BOSENTAN] |  | AC50 [2]: > 10 µM; AC50 [3]: > 30 µM; AC50 [4]: > 30 µM; AC50 (Progesterone receptor): > 30 µM |
| CC(C)(O)CNc1nc(Nc2ccnc(C(F)(F)F)c2)nc(-c2cccc(C(F)(F)F)n2)n1 [ENASIDENIB] | > 30 |  |
| O=C(O)COc1ccc(C(=O)c2cccs2)c(Cl)c1Cl | > 30 |  |
| CC(C)c1nc(N(C)S(C)(=O)=O)nc(-c2ccc(F)cc2)c1/C=C/[C@@H](O)C[C@@H](O)CC(=O)O [ROSUVASTATIN] |  | AC50 [1]: > 30 µM |
| CNC(=O)Oc1cccc2ccccc12 [CARBARIL] | > 30 |  |

| SMILES | AC50 (Estrogen receptor) [µM] | also measured |
| --- | --- | --- |
| CC(CN1CC(=O)NC(=O)C1)N1CC(=O)NC(=O)C1 (stereo unspecified) [RAZOXANE] | > 30 |  |
| CC(S)C(=O)NCC(=O)O (stereo unspecified) [TIOPRONIN] |  | AC50 [1]: > 30 µM |
| CC(CCc1ccccc1)NCC(O)c1ccc(O)c(C(N)=O)c1 (stereo unspecified) [LABETALOL] | > 30 |  |
| CCN1CCN(Cc2ccc(Nc3ncc(F)c(-c4cc(F)c5nc(C)n(C(C)C)c5c4)n3)nc2)CC1 [ABEMACICLIB] |  | AC50 [1]: > 30 µM |
| CCOC(=O)c1c(C)cc2c(CO)n[nH]c(=O)c2c1C [OXAGRELATE] | > 30 |  |
| CN1C(C(=O)Nc2ccccn2)=C(O)c2ccccc2S1(=O)=O [PIROXICAM] | > 30 |  |
| CN1CCCCC1CCN1c2ccccc2Sc2ccc([S+](C)[O-])cc21 (stereo unspecified) [MESORIDAZINE] | > 10 |  |
| COc1cc2nccc(Oc3ccc(NC(=O)C4(C(=O)Nc5ccc(F)cc5)CC4)cc3)c2cc1OC [CABOZANTINIB] | > 30 | AC50 [1]: > 30 µM |
| Nc1ccc(C(=O)Oc2ccccc2)c(O)c1 [PHENYL AMINOSALICYLATE] | > 30 |  |
| OC[C@H]1O[C@@H](c2ccc(F)c(Cc3cc4ccccc4s3)c2)[C@H](O)[C@@H](O)[C@@H]1O [IPRAGLIFLOZIN] | > 30 |  |
| C[C@]1(Cn2ccnn2)[C@H](C(=O)O)N2C(=O)C[C@H]2S1(=O)=O [TAZOBACTAM] | > 30 |  |
| COc1c2ccoc2cc2oc(=O)ccc12 [BERGAPTEN] | > 30 |  |
| OC[C@H]1O[C@@H](c2ccc(Cl)c(Cc3ccc(O[C@H]4CCOC4)cc3)c2)[C@H](O)[C@@H](O)[C@@H]1O [EMPAGLIFLOZIN] | > 30 |  |
| CC(C)OC(=O)CCC/C=C\C[C@@H]1[C@@H](/C=C/C(F)(F)COc2ccccc2)[C@H](O)C[C@@H]1O [TAFLUPROST] | > 30 |  |
| CC[C@@]1(O)C(=O)OCc2c1cc1n(c2=O)Cc2cc3c([N+](=O)[O-])cccc3nc2-1 [RUBITECAN] | > 30 |  |
| OC[C@H]1O[C@@](CO)(O[C@H]2O[C@H](CO)[C@@H](O)[C@H](O)[C@H]2O)[C@@H](O)[C@@H]1O [SUCROSE] | > 30 | AC50 [1]: > 30 µM |
| C[C@@H](Oc1cc(-c2cnn(C3CCNCC3)c2)cnc1N)c1c(Cl)ccc(F)c1Cl [CRIZOTINIB] |  | AC50 [1]: 17 µM; AC50 [4]: > 30 µM |
| OC[C@@H](O)[C@@H](O)[C@H](O)[C@@H](O)CO [SORBITOL] | > 30 |  |
| C=C[C@H]1C[N@@]2CC[C@H]1C[C@@H]2[C@@H](O)c1ccnc2ccc(OC)cc12 [QUINIDINE] |  | AC50 (Progesterone receptor): > 30 µM |
| CC[C@H]1OC(=O)[C@H](C)C(=O)[C@H](C)[C@@H](O[C@@H]2O[C@H](C)C[C@H](N(C)C)[C@H]2O)[C@](C)(OC)C[C@@H](C)C(=O)[C@H](C)[C@H]2N(CCCCn3cnc(-c4cccnc4)c3)C(=O)O[C@]12C [TELITHROMYCIN] | > 30 |  |
| O=C1CCc2cc(OCCCCc3nnnn3C3CCCCC3)ccc2N1 [CILOSTAZOL] |  | AC50 (Progesterone receptor): > 30 µM |
| Cc1onc(-c2ccccc2)c1C(=O)N[C@@H]1C(=O)N2[C@@H]1SC(C)(C)[C@@H]2C(=O)O [OXACILLIN] | > 30 |  |
| C[C@@H](NCCCc1cccc(C(F)(F)F)c1)c1cccc2ccccc12 |  | AC50 [1]: > 30 µM |
